Several values for one entry are separate records, joined by “and”; a condition that tells them apart may be missing. Equal values may be shown once.
How the values were obtained:
[1] = tested on: A. gambiae labellum ATP-sensitive receptor; test: Effects of metal ions on electrophysiological responses to ATP; assay type: cell-based, Anopheles gambiae
Description: (§1) The tip recording method was used to record action potentials (spikes) from sensory cells in sensilla on A. gambiae labellum lobes.
Sensilla were exposed to test compounds and PR antagonists for ca. 2-4 s and spikes were counted in the first 2 s of recordings. Up to 4 test compounds were tested on a sensillum to evaluate potential agonists, each presented at 200 pM. To study responses as a function of dose for agonists ATP, adenosine, AMP, AMP-CPP and ATP+adenosine, up to 7 recordings were made at increasing doses of agonist from the same sensillum. […]
Pairwise comparisons of A. gambiae electrophysiological (EP) responses to ATP and adenosine alone and combined with a given dose of PR antagonist, EP responses to ATP alone and combined with a given dose of a metal modulator, and EP responses to ATP prior to and after exposure of a sensillum to a given dose of a PR antagonist were made with a one-tailed Wilcoxon signed-rank test for data showing a non-normal distribution, with a paired Student's t-test for normally distributed data showing homogeneous variance and with a Welch's t-test for normally distributed data showing non-homogeneous variance. […] Percent feeding inhibition induced by PR antagonists in A. stephensi was calculated using Abbott's formula.

[2] = tested on: A. gambiae labellum sensilla (purine-sensitive cell); test: Tip recording of action potentials from A. gambiae labellum sensilla in response to agonists; assay type: cell-based, Anopheles gambiae
Description: as §1
Sensilla were exposed to test compounds and PR antagonists for ca. 2-4 s and spikes were counted in the first 2 s of recordings. Up to 4 test compounds were tested on a sensillum to evaluate potential agonists, each presented at 200 pM. To study responses as a function of dose for agonists ATP, adenosine, AMP, AMP-CPP and ATP+adenosine, up to 7 recordings were made at increasing doses of agonist from the same sensillum. Unless otherwise stated, recordings were made throughout from 4 to 16 sensilla from individual 4-6-day-old females per dose of agonist, antagonist and metal ion modulator. For example, a response curve established over 6 doses of an antagonist using 8 sensilla per dose involved recording from a sensillum of 48 separate mosquitoes. A given dose of a PR antagonist or metal ion modulator was only presented once to a sensillum. Two-second recordings were imported as ASCII files into DataView software for analysis of spike amplitude. Differences in spike amplitude generated by stimulation of one 8v sensillum/female with 1 mM sucrose (n=294 spikes from 6 females) 200 pM adenosine (n=207 spikes from 7 females) and 200 pM ATP (n=192 spikes from 7 females) were compared by measuring the spike amplitude in mV between the highest point of depolarisation and the lowest point of hyperpolarisation.
Spike counts elicited by 200 pM doses of nucleotides, nucleosides, purines, pyrimidines and water were log(x+1.25)-transformed (optimal constant numerically established using a maximum likelihood procedure) and analysed using a linear mixed effects model (function ‘lme’ in “nlme” R package) with mosquito number as random effect. To model inhomogeneous variance in residuals (near normal distribution, P=0.045, Shapiro-Wilk test, W=0.98604), the variance function ‘varldent’ in the “nlme” package that allows for different variance per treatment was used. Statistical differences were identified between treatments using post-hoc-Tukey test with contrasts adjusted by Holm's family wise error compensation (FWEC). Spike counts elicited by ATP, AMP, adenosine and their binary mixtures were analysed using a generalised linear model (LM) of log (x+10) transformed data and differences were identified using post-hoc-Tukey test with Holm's FWEC.
Log transformed spike amplitudes generated in response to ATP, adenosine and sucrose were compared using linear mixed effects models using the ‘lme’ function of the “nlme” R package, with spike amplitude as the dependent variable, treatment as the fixed factor and mosquito number within treatment as random effect. Residuals were normally distributed (Shapiro-Wilk test P>0.0563) and their variances homogeneous (Bartlett test P>0.9799); P-values were corrected using Holm's FWEC.
Dose-response models fitted to mosquito data were generated using the ‘drm’ command in the “drc” R package (version 2.5-12). Best fitting models (goodness of fit) and effects of dose of a compound were assessed using, respectively, ‘modelFit’ and ‘noEffect’ functions in the same R package. A 3-parameter logistic model (L3) was fitted to spike-counts recorded to increasing doses of adenosine, AMP, ATP and AMP-CPP. Spike numbers recorded in response to 200 pM ATP with increasing doses of PR antagonists added were analysed using a 4-parameter log-logistic model (LL.4) for A-317491 and spinorphin, using a 4-parameter Weibull model (W1.4) for PPADS, RB-2 and TMP, and using a 3-parameter log-logistic model (LL.3) for suramin. An L3 model was fitted to proportions of females feeding on increasing doses of ATP. Feeding rates on 20 μM ATP with increasing doses of a PR antagonist added were analysed using a 4-parameter log-logistic model (LL.4) with the median of the positive control (20 μM ATP) fixed as the upper asymptote. […]

[3] = spike frequency as a function of dose

SMILES: Nc1ncnc2c1ncn2[C@@H]1O[C@H](COP(=O)(O)OP(=O)(O)OP(=O)(O)O)[C@@H](O)[C@H]1O [ATP, Adenosine 5′-triphosphate]
- Mean no. of spikes per 2 s (±s.e.m.) ([1]; 100 pM ATP alone): 3 ± 1.67 spikes per 2 s
- Mean no. of spikes per 2 s (±s.e.m.) ([1]; 200 pM ATP alone): 24.8 ± 4.84 spikes per 2 s and 28.12 ± 3.5 spikes per 2 s
- spike frequency ([2]; 50 pM alone, mixture 50 pM of each agonist): 2.5±0.7 /2s
- EC50 ([2]; Anopheles gambiae, spike frequency as a function of dose, read-out: ED50 (the source's name)): ~0.12 nM
- spikes recorded at the asymptote ([2]; at 250 pM): approximately 30 spikes/2 s
- Mean spike frequency per 2 s (±SEM) ([2]; each compound at 200 pM alone and in binary mixtures, T1 labellum sensilla): 33.04 per 2 s
- detection threshold ([2]; labellum sensory cell): < 100 pM
- ED95 [2, 3]: ~0.2 nM
- dose at which the unsurmountable asymptote is reached [2, 3]: 250 pM

Source: patent US20250057791A1, “PROTECTION AGAINST ARTHROPOD PARASITES WITH PURINERGIC RECEPTOR (OPR) ANTAGONISTS” (priority 2021, published 2025)
